Data reported in article PMC9146984, “A Novel Proline-Rich Cathelicidin from the Alpaca Vicugna pacos with Potency to Combat Antibiotic-Resistant Bacteria: Mechanism of Action and the Functional Role of the C-Terminal Region” (Membranes, 2022).
≈ marks a conversion by molar mass, not a printed value. Like-named read-outs stand apart in the source and are kept apart here. Where a SMILES comes first, the peptide text is derived from it.

Assays:
E. coli BW25113 ΔmdtM = type: cell-based, Escherichia coli; details: Mueller–Hinton broth, 24 h, 37 °C, median
Description: (§1) The reduction of resazurin to resorufin was measured.

E. coli BW25113 ΔompF = type: cell-based, Escherichia coli; details: Mueller–Hinton broth, 24 h, 37 °C, median
Description: as §1

E. coli BW25113 ΔsbmA = type: cell-based, Escherichia coli; details: for Minimum inhibitory concentration, E. coli strain ΔsbmA: Mueller–Hinton broth, 24 h, 37 °C, median
Description: as §1

E. coli BW25113 = type: cell-based, Escherichia coli; details: BW25113, 24 h
Description: as §1

E. coli CI 214 = assay: Antimicrobial assay (MIC); type: cell-based, Escherichia coli; details: Mueller-Hinton broth supplemented with 0.9% NaCl
Description: as §1

E. coli ML-35p = assay: Antimicrobial assay (MIC); type: cell-based, Escherichia coli; details: Mueller-Hinton broth supplemented with 0.9% NaCl
Description: as §1

B. subtilis B-886 = assay: Antimicrobial assay (MIC); type: cell-based, Bacillus subtilis; details: Mueller-Hinton broth supplemented with 0.9% NaCl
Description: as §1

A. baumannii XDR CI 2675 = assay: Antimicrobial assay (MIC); type: cell-based; details: Mueller-Hinton broth supplemented with 0.9% NaCl
Description: as §1

[1] = system: B. licheniformis VKM B511; assay: Antimicrobial assay (MIC); type: cell-based; details: Mueller-Hinton broth supplemented with 0.9% NaCl
Description: as §1

E. cloacae XDR CI 4172 = assay: Antimicrobial assay (MIC); type: cell-based; details: Mueller-Hinton broth supplemented with 0.9% NaCl
Description: as §1

[2] = system: K. pneumoniae ATCC 700603; assay: Antimicrobial assay (MIC); type: cell-based; details: Mueller-Hinton broth supplemented with 0.9% NaCl
Description: as §1

[3] = system: Mycobacterium phlei Ac-1291; assay: Antimicrobial assay (MIC); type: cell-based; details: Mueller-Hinton broth supplemented with 0.9% NaCl
Description: as §1

P. mirabilis XDR CI 3423 = assay: Antimicrobial assay (MIC); type: cell-based; details: Mueller-Hinton broth supplemented with 0.9% NaCl
Description: as §1

E. coli MDR 1057 = details: MH broth with 0.9% NaCl, 14 passages with the same agent (VicBac[1–22]: after 10 passages)
Description: Resistance induction experiments were performed using the previously described method. Briefly, on day one, the overnight culture of wild-type bacteria was diluted with the 2× MH broth supplemented with 1.8% NaCl to reach a final cell concentration of 10^6 CFU/mL. 50 µL of the obtained bacterial suspension were added to aliquots of 50 µL of the peptide solutions serially diluted with the sterilized 0.1% BSA in 96-well flat-bottom polystyrene microplates. After incubation for 20 ± 2 h at 37 °C and 950 rpm, MICs were determined as described above. For each subsequent daily transfer, 2–4 μL of the inoculum taken from the first well containing a sub-inhibitory drug concentration were diluted with 2 mL of the fresh 2× MH broth supplemented with 1.8% NaCl. […] Bacteria that grew at the highest concentration of AMPs on the final day were passaged a further 3 times on drug-free agar plates before determining the final MIC value.

[4] = system: E. coli BL21 (DE3) Star cell extract, coupled transcription/translation of EGFP; assay: In vitro transcription/translation inhibition assay (cell-free EGFP synthesis); type: biochemical, Escherichia coli; details: EGFP fluorescence, 2 h, 30 °C; at least two independent experiments in triplicate; read-out: IC50, inhibition of in vitro protein synthesis in the E. coli cell-free system
Description: To investigate the effect of cathelicidins on the coupled transcription/translation process, the peptides were added to a cell-free protein synthesis (CFPS) reaction mix with a plasmid encoding enhanced green fluorescent protein (EGFP) variant (F64L, S65T, Q80R, F99S, M153T, and V163A) under control of the T7 promoter as described previously with some modifications. Briefly, the peptides were dissolved in 0.1% BSA in water. Bac7[1–22] was used as a positive control inhibitor. The fluorescence of the sample without inhibitor was set as the 100% value. The reaction proceeded for 2 h in 96-well v-bottom black polystyrene microplates in a plate shaker (30 °C, 1000 rpm). The fluorescence of the synthesized EGFP was measured with the microplate reader AF2200 (λExc = 488 nm, λEm = 510 nm; Eppendorf, Hamburg, Germany). The experimental data were obtained from at least two independent experiments performed in triplicate. Non-linear regression curves were generated using GraphPad Prism v.8.0.1 (GraphPad Software Inc., San Diego, CA, USA).

Cytotoxicity (MTT assay) = type: cell-based, human; details: human
Description: Hemolytic activity of the peptides was tested against the fresh suspension of human red blood cells (hRBC) using the hemoglobin release assay as described previously. Two experiments were performed with the hRBC from blood samples of independent donors. The quantitative data were represented as average means with standard deviations. The colorimetric 3-(4,5-dimethylthiazol-2-yl)-2,5-diphenyltetrazolium bromide (MTT) dye reduction assay was used to determine the cytotoxicity of the peptides against transformed human embryonic kidney cells (HEK293T). 10^4 cells per well in Dulbecco’s modified Eagle’s medium (DMEM/F12) supplemented with 10% fetal bovine serum (FBS; Invitrogen, Waltham, MA, USA) were placed into 96-well plates and then cultured in the CO2-incubator (5% CO2, 37 °C). After the media were removed, the peptides were dissolved in 100 µL of the same medium and added to cell cultures at different final concentrations. 20 h later, 20 μL of MTT (5 mg/mL; Sigma, St. Louis, MO, USA) was added to each well, and the plates were incubated for 4 h at 37 °C. Then, the media were discarded and a 100 µL dimethyl sulfoxide-isopropanol mixture at a ratio of 1:1 (v/v) was added to each well to dissolve the crystallized formazan. The absorbance at 570 nm was measured by a microplate reader AF2200 (Eppendorf, Hamburg, Germany). The optical density in the wells containing cells cultured without the peptides was assumed to represent 100% cell viability. Two independent experiments were performed for each peptide.

S. aureus ATCC 25923 = assay: Antimicrobial assay (MIC); type: cell-based, Staphylococcus aureus; details: Mueller–Hinton broth supplemented with 0.9% NaCl
Description: as §1

S. aureus ATCC 29213 = assay: Antimicrobial assay (MIC); type: cell-based, Staphylococcus aureus; details: Mueller-Hinton broth supplemented with 0.9% NaCl
Description: as §1

S. aureus ATCC 6538P = assay: Antimicrobial assay (MIC); type: cell-based, Staphylococcus aureus; details: Mueller-Hinton broth supplemented with 0.9% NaCl
Description: as §1

S. aureus MDR CI 119 = assay: Antimicrobial assay (MIC); type: cell-based, Staphylococcus aureus; details: Mueller-Hinton broth supplemented with 0.9% NaCl
Description: as §1

[5] = system: panel of reference bacterial pathogens and antibiotic-resistant clinical isolates; details: Mueller–Hinton broth supplemented with 0.9% NaCl
Description: Bacterial test cultures were grown in the Mueller-Hinton broth (MH; Sigma, St. Louis, MO, USA) at 37 °C to mid-log phase and then diluted with the 2× MH medium supplemented with 1.8% NaCl or without salt so that to reach a final cell concentration of 10^6 CFU/mL. 50 µL of the obtained bacterial suspension were added to aliquots of 50 µL of the peptide solutions serially diluted with sterilized 0.1% bovine serum albumin (BSA) in 96-well flat-bottom polystyrene microplates (Eppendorf #0030730011, Hamburg, Germany). […] To verify MIC values, the respiratory activity of the bacteria was determined. Briefly, 20 µL of 0.1 mg/mL resazurin (a redox indicator; Sigma, St. Louis, MO, USA) was added to the wells after 24 h of incubation, and the plate was incubated for an additional two hours. The reduction of resazurin to resorufin was measured. […] The results were expressed as the median values determined based on at least three independent experiments performed in triplicate.

SMILES: CC[C@H](C)[C@H](NC(=O)[C@H](CCCNC(=N)N)NC(=O)[C@@H](N)CCCNC(=N)N)C(=O)N[C@@H](CCCNC(=N)N)C(=O)N[C@@H](CCCNC(=N)N)C(=O)N1CCC[C@H]1C(=O)N[C@@H](CCCNC(=N)N)C(=O)N[C@@H](CC(C)C)C(=O)N1CCC[C@H]1C(=O)N[C@@H](CCCNC(=N)N)C(=O)N1CCC[C@H]1C(=O)N[C@@H](CCCNC(=N)N)C(=O)N[C@H](C(=O)N1CCC[C@H]1C(=O)N[C@@H](CCCNC(=N)N)C(=O)N1CCC[C@H]1C(=O)N[C@@H](CCCNC(=N)N)C(=O)N[C@H](C(=O)N1CCC[C@H]1C(=O)N1CCC[C@H]1C(=O)N[C@@H](CCCNC(=N)N)C(=O)N[C@H](C(=O)N1CCC[C@H]1C(=O)N[C@@H](CCCNC(=N)N)C(=O)N1CCC[C@H]1C(=O)N[C@H](C(=O)N[C@@H](CC(C)C)C(=O)N1CCC[C@H]1C(=O)N1CCC[C@H]1C(=O)N1CCC[C@H]1C(=O)N[C@@H](CCCNC(=N)N)C(=O)N[C@H](C(=O)N1CCC[C@H]1C(=O)N[C@@H](Cc1ccccc1)C(=O)N1CCC[C@H]1C(=O)N[C@@H](CCCNC(=N)N)C(=O)N[C@@H](Cc1ccccc1)C(=O)N1CCC[C@H]1C(=O)N[C@@H](CCCNC(=N)N)C(N)=O)C(C)C)C(C)C)[C@@H](C)CC)[C@@H](C)CC)C(C)C [VicBac[1-39]] (H-RRIRRPRLPRPRVPRPRIPPRIPRPVLPPPRVPFPRFPR-NH2; N-terminus assumed)
- Minimum inhibitory concentration, E. coli strain ΔmdtM (E. coli BW25113 ΔmdtM; 0.9% NaCl: +): 1 µM (≈ 4.82 µg/mL)
- Minimum inhibitory concentration, E. coli strain ΔmdtM (E. coli BW25113 ΔmdtM; 0.9% NaCl: −): 2 µM (≈ 9.64 µg/mL)
- Minimum inhibitory concentration, E. coli strain ΔompF (E. coli BW25113 ΔompF; 0.9% NaCl: +): 1 µM (≈ 4.82 µg/mL)
- Minimum inhibitory concentration, E. coli strain ΔompF (E. coli BW25113 ΔompF; 0.9% NaCl: −): 1 µM (≈ 4.82 µg/mL)
- increase in MIC against ΔsbmA strain versus BW25113 (E. coli BW25113 ΔsbmA; Mueller–Hinton broth with 0.9% NaCl): 2 fold
- Minimum inhibitory concentration, E. coli strain ΔsbmA (E. coli BW25113 ΔsbmA; 0.9% NaCl: +): 2 µM (≈ 9.64 µg/mL)
- Minimum inhibitory concentration, E. coli strain ΔsbmA (E. coli BW25113 ΔsbmA; 0.9% NaCl: −): 2 µM (≈ 9.64 µg/mL)
- Minimum inhibitory concentration, E. coli strain BW25113 (E. coli BW25113): 1 µM (≈ 4.82 µg/mL)
- MIC, E. coli CI 214 (E. coli CI 214): 8 µM (≈ 38.5 µg/mL)
- MIC, E. coli ML-35p (E. coli ML-35p): 0.5 µM (≈ 2.41 µg/mL)
- MIC, B. subtilis B-886 (B. subtilis B-886): 16 µM (≈ 77.1 µg/mL)
- MIC, A. baumannii XDR CI 2675 (A. baumannii XDR CI 2675): 8 µM (≈ 38.5 µg/mL)
- MIC, B. licheniformis VKM B511 [1]: 1 µM (≈ 4.82 µg/mL)
- MIC, E. cloacae XDR CI 4172 (E. cloacae XDR CI 4172): 4 µM (≈ 19.3 µg/mL)
- MIC, K. pneumoniae ATCC 700603 [2]: 2 µM (≈ 9.64 µg/mL)
- MIC, Mycobacterium phlei Ac-1291 [3]: 0.5 µM (≈ 2.41 µg/mL)
- MIC, P. mirabilis XDR CI 3423 (P. mirabilis XDR CI 3423): 8 µM (≈ 38.5 µg/mL)
- increase in MIC value after serial passage selection (E. coli MDR 1057): did not change
- IC50 [4]: 0.5 µM
- IC50 at 20 h (Cytotoxicity (MTT assay)): ~100 µM
- inhibition of S. aureus ATCC 25923 (S. aureus ATCC 25923): could not inhibit
- MIC, S. aureus ATCC 29213 (S. aureus ATCC 29213): > 32 µM
- MIC, S. aureus ATCC 6538P (S. aureus ATCC 6538P): 0.25 µM (≈ 1.2 µg/mL)
- MIC, S. aureus MDR CI 119 (S. aureus MDR CI 119): > 32 µM
- MIC values, in most cases, against panel of reference pathogens and clinical isolates [5]: 0.25 to 8 µM
